From patent publication US20170233409A1, “TYPE IV SECRETION SYSTEM INHIBITORS” (priority 2016, published 2017) come the findings set out here.

Each structure is given as a SMILES string. “Also recorded” adds a separate entry of the source.

In test [1] the test system is IncN group conjugative T4SS encoded by pKM101. Briefly: DNA conjugation efficiency, pKM101. As to conditions: 150 μM, compared to vehicle controls.
Experimental: (§1) Analysis of DNA conjugation efficiency. Overnight cultures of donor E. coli MG1655 harboring pKM101, donor E. coli MS411 harboring R1-16, and recipient E. coli MG1655 (WM1652) were grown at 37° C. with shaking at 225 rpm in LB/antibiotic, were diluted in antibiotic-free LB containing DMSO or 150 μM compound, and incubated with shaking at 37° C. to reach an OD600 of ˜0.3. Donor and recipient cells were mixed at a ratio of 1:1 on 0.22 μM pore size mixed cellulose ester filters (Millipore) on antibiotic-free LB plates for 2 h at 37° C. Filters were aseptically removed from LB plates and incubated in 100 μl antibiotic-free LB to dislodge E. coli from membranes. Serial dilutions were plated on the appropriate antibiotic (or dual antibiotic) LB plates to determine the number of donor, recipient, and transconjugant cells. Colonies were enumerated after 24 h, and conjugation efficiencies were calculated by dividing the average number of transconjugates by the average number of donors (either pKM101 or R1-16 donor cells). Conjugation efficiency in the presence of compound is expressed as a percentage of conjugation efficiency in DMSO.
The target of another test is T1, TLR9 (Homo sapiens, UniProt Q9NR96).
T1 construct: host or cells: HEK293-TLR9 reporter cell line
T1 sequence (Q9NR96 26-1032): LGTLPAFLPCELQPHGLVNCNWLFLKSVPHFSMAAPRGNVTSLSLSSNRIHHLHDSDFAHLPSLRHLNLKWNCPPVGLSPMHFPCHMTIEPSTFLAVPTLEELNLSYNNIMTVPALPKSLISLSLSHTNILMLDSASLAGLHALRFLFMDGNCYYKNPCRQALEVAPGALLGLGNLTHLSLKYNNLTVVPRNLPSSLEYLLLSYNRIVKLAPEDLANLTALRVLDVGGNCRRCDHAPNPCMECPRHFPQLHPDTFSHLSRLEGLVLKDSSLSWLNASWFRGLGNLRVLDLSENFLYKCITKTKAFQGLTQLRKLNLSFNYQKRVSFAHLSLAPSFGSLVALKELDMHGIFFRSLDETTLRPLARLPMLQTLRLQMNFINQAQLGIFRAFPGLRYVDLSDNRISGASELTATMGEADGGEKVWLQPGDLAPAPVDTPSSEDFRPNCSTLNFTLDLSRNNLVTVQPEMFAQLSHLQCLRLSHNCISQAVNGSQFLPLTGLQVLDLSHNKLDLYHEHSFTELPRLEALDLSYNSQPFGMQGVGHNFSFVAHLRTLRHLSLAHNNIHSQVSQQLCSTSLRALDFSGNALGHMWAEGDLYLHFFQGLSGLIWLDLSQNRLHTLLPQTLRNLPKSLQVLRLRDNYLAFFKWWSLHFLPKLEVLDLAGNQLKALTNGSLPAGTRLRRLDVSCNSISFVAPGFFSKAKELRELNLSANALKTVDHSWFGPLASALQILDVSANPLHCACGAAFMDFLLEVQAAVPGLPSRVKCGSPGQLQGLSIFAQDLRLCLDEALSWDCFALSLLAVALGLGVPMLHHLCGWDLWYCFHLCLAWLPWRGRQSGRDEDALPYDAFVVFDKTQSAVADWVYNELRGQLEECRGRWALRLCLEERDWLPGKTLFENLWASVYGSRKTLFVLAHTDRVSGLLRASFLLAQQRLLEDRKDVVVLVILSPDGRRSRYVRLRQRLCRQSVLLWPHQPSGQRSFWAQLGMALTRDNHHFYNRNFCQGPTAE
Briefly: TLR9 activation by CpG ODN (control). The test is classed as cell-based. As to conditions: 50 μM. The method, then: Inhibition of T4SS-dependent activation of human TLR9 signaling by H. pylori. H. pylori strain J166 was grown in broth culture overnight, and was subsequently pre-treated in the indicated compound at a final concentration of 50 μM, or in an equivalent volume of DMSO vehicle for 30 min prior to inoculating cultured HEK293-TLR9 reporter cell lines. Co-cultures were incubated in the presence of 50 μM compound or an equivalent volume of DMSO vehicle supplemented in the cell culture media for the duration of incubation (18 hours). TLR9 activation was assayed using a colorimetric assay (Invivogen), and TLR9 activation in the presence of type IV secretion system (T4SS) inhibitor compounds is expressed as a percentage of TLR9 activation by H. pylori in the presence of vehicle. As a control, TLR9 was activated with the immunostimulatory synthetic ligand CpG oligodeoxynucleotide (CpG ODN) in the presence of DMSO or inhibitor compound at 50 μM final concentration.

In test [2] the test system is cag T4SS. Briefly: CagA translocation assay (tyrosine-phosphorylated CagA immunoblot). The test is classed as cell-based, H. pylori. Conditions: 150 μM; compared to vehicle-only and GKP42-treated controls. (In western blotting, separated proteins are transferred to a membrane and probed.)
In test [3] the test system is IncF group R1-16 conjugative T4SS. Briefly: DNA conjugation efficiency, R1-16. Conditions: 150 μM.
Experimental: as §1
The test system of test [4] is cag T4SS. Briefly: NF-κB luciferase reporter activation by H. pylori in AGS cells. The class given is cell-based. Conditions: for cag T4SS-dependent NF-κB activation: WT H. pylori, AGS NF-κB-luc cells; for cag T4SS-mediated NF-κB activation by H. pylori strains of different phylogeographic origins: multiple H. pylori strains. On the procedure: Quantitation of NF-κB signaling activation. AGS cells stably transfected with an NF-κB-luciferase reporter (AGS NF-κB-luc) were cultured for 24 h and treated as described for the IL-8 induction studies. After 4 h co-culture with H. pylori, cell monolayers were washed with sterile PBS, and cell monolayer extracts were obtained by passive cell lysis. NF-κB-luciferase activity was measured by the Steady-Glo Luciferase Assay System (Promega) on a BioTek Synergy 4 plate reader, and plates were normalized to the DMSO vehicle control for each dilution series.

The next test deals with cag T4SS pili. As to the kind of experiment: Scanning electron microscopy of cag T4SS pili. The test is classed as cell-based, H. pylori. Conditions: 150 μM, SEM. The method, then:
Scanning electron microscopy. Overnight cultures of H. pylori were diluted to OD600˜0.3 and incubated with shaking at 37° C., 5% CO2 for 1 h in the presence of vehicle or 150 μM compound and co-cultured with AGS cells on tissue culture-treated coverslips (BD Biosciences) at an MOI of 100 in the presence of 150 μM compound or vehicle. H. pylori-AGS cell co-cultures were processed and imaged.
Field emission gun scanning electron microscopy. Samples were fixed with 2.0% paraformaldehyde, 2.5% glutaraldehyde in 0.05 M sodium cacodylate buffer, and secondarily fixed with 0.1% osmium tetroxide. Sequential dehydration was performed by washing with increasing concentrations of ethanol. Samples were dried at the critical point with a Tousimis critical point dryer. Coverslips were mounted onto aluminum stubs and sputter coated with gold-palladium and imaged with an FEI Quanta 250 FEG-SEM.

The subject of a further test is H. pylori cag T4SS. The test is classed as cell-based. Conditions: for T4SS-dependent activation of TLR9 by H. pylori: strain J166 pre-treated 30 min, 50 μM, 18 hours.
The next test has as its system H. pylori. As to the kind of experiment: H. pylori viability (cellular ATP, CellTiter-Glo). As to conditions: concentrations up to 150 μM. The test is classed as cell-based. For orientation: In ATP-based viability assays light output follows the ATP content of the culture.
For test [5], the system named is cag T4SS. The test is classed as cell-based, H. pylori. Conditions: for LogEC50, attenuation of cag T4SS-dependent IL-8 secretion / EC50: 4.5 h co-culture, normalized IL-8 secretion, non-linear regression; for cag T4SS-dependent IL-8 secretion: H. pylori-gastric epithelial cell co-culture, 25-150 μM; for EC50: read-out: EC50, attenuation of cag T4SS-dependent IL-8 secretion.

For orientation: EC50 means the midpoint of the concentration-response curve.

Turning to `COc1ccc(Cc2cc(=O)n3c(c2C2CC2)SC[C@H]3C(=O)O)c2ccccc12` [KSK85, (3R)-7-[(4-methoxynaphthalen-1-yl)methyl]-8-cyclopropyl-5-oxo-2,3-dihydro-5H-[1,3]thiazolo[3,2-a]pyridine-3-carboxylic acid], the “DNA conjugation efficiency of pKM101” value in test [1] was “reduced”. Besides, the “activation of TLR9 by CpG ODN” value on TLR9 is “not by CpG ODN”. For the same compound, the “amount of tyrosine-phosphorylated CagA in cultured gastric epithelial cells” value in the test on cag T4SS [2] is on record as “significantly reduced”. Besides, the “DNA conjugation efficiency of the de-repressed R1-16 system” value in test [3] was “did not”. Also, in the test with cag T4SS [4], the “cag T4SS-dependent NF-κB activation” value was “significantly reduced; also recorded: reduced compared to the inhibitory effects of C10”, the “cag T4SS-mediated NF-κB activation by H. pylori strains of different phylogeographic origins” value was “inhibited” and the “NF-κB activation by H. pylori ΔcagA mutant compared to WT strain” value is “significantly enhanced”. Also, in the test on cag T4SS pili, the “cag T4SS pilus formation at the bacteria-host cell interface” value was “abrogated pilus formation in the majority of H. pylori cells”. Also, in the test with H. pylori cag T4SS, the “T4SS-dependent activation of TLR9 by H. pylori” value is reported as “inhibit”. The “viability of bacterial cells” value with H. pylori is reported as “did not impact viability”. For the same compound, in the test on cag T4SS [5], the “LogEC50, attenuation of cag T4SS-dependent IL-8 secretion” value was −1.14; the “cag T4SS-dependent IL-8 secretion” value is on record as “significantly reduced”; the half-maximal effective concentration (EC50) came out at 72.2 µM.
In the case of `O=C(O)[C@@H]1CSc2c(C3CC3)c(Cc3cccc4ccccc34)cc(=O)n21` [Compound C10, (3R)-8-cyclopropyl-7-(naphthalen-1-ylmethyl)-5-oxo-3,5-dihydro-2H-thiazolo[3,2-a]pyridine-3-carboxylic acid], in test [1], the “DNA conjugation efficiency of pKM101” value is given as “reduced”. Also, the “activation of TLR9 by CpG ODN” value on TLR9 is “not by CpG ODN”. For the same compound, in the test with cag T4SS [2], the “amount of tyrosine-phosphorylated CagA in cultured gastric epithelial cells” value is given as “significantly reduced”. The “DNA conjugation efficiency of the de-repressed R1-16 system” value in test [3] is listed as “reduced DNA transfer”. Moreover, in the test with cag T4SS [4], the “cag T4SS-dependent NF-κB activation” value is listed as “significantly reduced”, the “cag T4SS-mediated NF-κB activation by H. pylori strains of different phylogeographic origins” value was “inhibited” and the “NF-κB activation by H. pylori ΔcagA mutant compared to WT strain” value is on record as “the same as those observed in the WT strain”. Moreover, in the test on H. pylori cag T4SS (no bacterial pre-treatment, about 18 hours post-infection, HEK293-TLR9 cells), the “T4SS Inhibiton [50 μM] (TLR9 Activation Assay)” value is on record as “++”. Also, in the test on H. pylori cag T4SS, the “T4SS-dependent activation of TLR9 by H. pylori” value is “inhibit”. In addition, the “viability of bacterial cells” value with H. pylori was “did not impact viability”. In the test on cag T4SS [5], the “LogEC50, attenuation of cag T4SS-dependent IL-8 secretion” value is −1.19; the “cag T4SS-dependent IL-8 secretion” value is “significantly reduced”; the EC50 came to 64.5 µM.
